The text below walks through data of patent US10925876B2, “Methods for using triazolo-pyrazinyl soluble guanylate cyclase activators in fibrotic disorders” (Merck Sharp & Dohme Corp., priority 2016, dated 2021).

Experiment [1] has as its system Spontaneously hypertensive rats (SHR). Briefly: Acute Efficacy in Spontaneously Hypertensive Rats (SHR), telemetry blood pressure. The experiment is classed as in vivo, rat. As to conditions: single oral gavage. An excerpt: Spontaneously hypertensive rats (SHR, male, Charles River) were implanted with DSI TA11PA-C40 telemetry device (Data Sciences, Inc., St. Paul, Minn.) under isoflurane or ketamine/metomidine anesthesia. The telemetry unit catheter was inserted into the descending aorta via the femoral artery and the telemetry device was implanted subcutaneously in the left flank area. Animals were allowed to recover from surgery for 14 days before the start of any studies. Blood pressure, heart rate, and activity signals from conscious, freely moving rats were recorded continuously for 30 seconds every 10 minutes. On the day prior to administration of compound, a single oral dose of vehicle (10% transcutol/20% Cremophor/70% water) was administered to all animals to establish baseline control data. The blood pressure lowering efficacy of compound (PO) or vehicle was evaluated following a single oral gavage. Data were collected as hourly averages, and changes in blood pressure were calculated by subtracting control baseline data on an hourly basis. Animals were maintained on normal diet with a 12 hour light-dark cycle.
Maximum peak decreases of systolic blood pressure (SBP) in SHR at a particular P.O. dose (mpk milligrams per kilogram) for the following representative compounds are provided. Category A=SBP in SHRs <20 mmHg; Category B=SBP in SHRs 20-40 mmHg; Category C=SBP in SHRs >40 mmHg.

Experiment [2] addresses T1, sGC α1/β1 heterodimer (Homo sapiens, UniProt Q02108+Q02153).
T1 construct: expressed in transfected cells
T1 sequence (Q02108 1-690): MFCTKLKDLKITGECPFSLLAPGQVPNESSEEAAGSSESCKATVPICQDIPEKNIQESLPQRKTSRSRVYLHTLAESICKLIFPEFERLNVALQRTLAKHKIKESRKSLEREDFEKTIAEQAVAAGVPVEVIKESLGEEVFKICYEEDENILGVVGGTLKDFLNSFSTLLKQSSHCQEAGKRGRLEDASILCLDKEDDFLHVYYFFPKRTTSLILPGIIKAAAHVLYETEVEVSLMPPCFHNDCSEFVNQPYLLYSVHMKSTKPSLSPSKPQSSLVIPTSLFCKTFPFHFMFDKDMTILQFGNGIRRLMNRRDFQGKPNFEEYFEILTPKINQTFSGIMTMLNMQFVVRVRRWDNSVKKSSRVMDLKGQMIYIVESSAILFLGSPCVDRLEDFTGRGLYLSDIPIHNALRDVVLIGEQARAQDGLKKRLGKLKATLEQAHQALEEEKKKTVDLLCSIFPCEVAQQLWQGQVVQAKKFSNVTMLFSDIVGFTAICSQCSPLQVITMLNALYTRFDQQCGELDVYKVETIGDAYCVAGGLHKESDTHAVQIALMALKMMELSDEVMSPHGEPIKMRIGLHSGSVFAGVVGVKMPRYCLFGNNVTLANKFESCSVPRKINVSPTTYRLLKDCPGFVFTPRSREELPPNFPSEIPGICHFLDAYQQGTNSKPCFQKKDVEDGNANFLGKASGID
T1 sequence (Q02153 1-619): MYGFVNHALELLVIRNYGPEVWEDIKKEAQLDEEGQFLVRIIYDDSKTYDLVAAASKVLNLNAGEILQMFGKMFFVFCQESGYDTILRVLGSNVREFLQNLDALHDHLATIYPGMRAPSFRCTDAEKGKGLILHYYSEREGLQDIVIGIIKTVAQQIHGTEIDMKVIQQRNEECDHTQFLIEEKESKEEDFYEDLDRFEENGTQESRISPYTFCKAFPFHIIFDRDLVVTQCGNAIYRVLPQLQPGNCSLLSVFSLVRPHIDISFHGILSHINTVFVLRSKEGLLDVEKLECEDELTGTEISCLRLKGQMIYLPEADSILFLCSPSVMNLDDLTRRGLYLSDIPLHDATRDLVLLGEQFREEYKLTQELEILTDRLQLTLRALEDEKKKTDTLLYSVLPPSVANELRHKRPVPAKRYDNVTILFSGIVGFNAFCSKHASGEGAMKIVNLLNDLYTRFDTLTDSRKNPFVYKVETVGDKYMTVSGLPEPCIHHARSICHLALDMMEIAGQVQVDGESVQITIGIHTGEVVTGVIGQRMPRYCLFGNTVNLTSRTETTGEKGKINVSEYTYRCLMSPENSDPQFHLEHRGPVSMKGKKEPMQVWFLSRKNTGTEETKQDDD
Briefly: Cell-Based sGC Functional Assay (CASA Assay), cGMP generation in CHO-K1/sGC cells.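 Further: reference Compound A is a published heme-dependent sGC activator.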 To be noted: maximum cGMP production of Compound A set to 100% activation, read-out: % Act. (percent activation relative to Compound A). Summed up:
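Intracellular cGMP quantified by HTRF competition after 1 h, 37 °C compound exposure, with or without 1 μM DETA-NO, in stable CHO-K1/sGC α1/β1 cells (4×10^5/mL; buffer with 0.5 mM IBMX, 5 mM MgCl2, 10 mM HEPES, 0.05% BSA; 2.5% DMSO). Activation normalized to reference Compound A maximum; 4P fit.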

As to `CC1(c2ccccn2)C(=O)Nc2nc(-c3cn4ncnc4c(CCC(F)(F)C(F)(F)F)n3)nc(N)c21` (stereo not drawn) [Example 11B, 4-amino-5-methyl-2-(8-(3,3,4,4,4-pentafluorobutyl)-[1,2,4]triazolo[1,5-a]pyrazin-6-yl)-5-(pyridin-2-yl)-5H-pyrrolo[2,3-d]pyrimidin-6(7H)-one], in experiment [1] (P.O. 0.3 mpk), the “Maximum peak decrease of systolic blood pressure (SBP) in SHR, Cat.” value (“Maximum peak decrease” below) is “B (Category B=SBP in SHRs 20-40 mmHg)”. Besides, in experiment [2], the Emax was 208%.
In the case of `CC1(c2ccccc2)C(=O)Nc2nc(-c3cn4ncnc4c(CCC(F)(F)C(F)(F)F)n3)nc(N)c21` (stereo not drawn) [Example 12B, 4-amino-5-methyl-2-(8-(3,3,4,4,4-pentafluorobutyl)-[1,2,4]triazolo[1,5-a]pyrazin-6-yl)-5-phenyl-5H-pyrrolo[2,3-d]pyrimidin-6(7H)-one], the “Maximum peak decrease” value in experiment [1] (P.O. 0.1 mpk) was “B (Category B=SBP in SHRs 20-40 mmHg)”. In addition, in experiment [2], the Emax turned out to be 122%.
`CC1(c2ccc(C3CC3)nc2)C(=O)Nc2nc(-c3cn4ncnc4c(CCC(F)(F)C(F)(F)F)n3)nc(N)c21` (stereo not drawn) [Example 13B, 4-amino-5-(6-cyclopropylpyridin-3-yl)-5-methyl-2-(8-(3,3,4,4,4-pentafluorobutyl)-[1,2,4]triazolo[1,5-a]pyrazin-6-yl)-5H-pyrrolo[2,3-d]pyrimidin-6(7H)-one]: the “Maximum peak decrease” value in experiment [1] (P.O. 1 mpk) is given as “B (Category B=SBP in SHRs 20-40 mmHg)”. Moreover, the Emax in experiment [2] was determined as 109%.
For the compound `CC1(c2ccc(C#N)cn2)C(=O)Nc2nc(-c3cn4ncnc4c(CCC(F)(F)C(F)(F)F)n3)nc(N)c21` (stereo not drawn) [Example 18A], the “Maximum peak decrease” value in experiment [1] (P.O. 0.3 mpk) was “C (Category C=SBP in SHRs >40 mmHg)”. In experiment [2], the Emax amounted to 75%.
For `CC(C)n1cc(C2(C)C(=O)Nc3nc(-c4cn5ncnc5c(CCC(F)(F)C(F)(F)F)n4)nc(N)c32)nn1` (stereo not drawn) [Example 20A, 4-amino-5-(1-isopropyl-1H-1,2,3-triazol-4-yl)-5-methyl-2-(8-(3,3,4,4,4-pentafluorobutyl)-[1,2,4]triazolo[1,5-a]pyrazin-6-yl)-5H-pyrrolo[2,3-d]pyrimidin-6(7H)-one], the “Maximum peak decrease” value in experiment [1] (P.O. 1 mpk) is recorded as “C (Category C=SBP in SHRs >40 mmHg)”. The Emax in experiment [2] was 131%.
On to `CC1(c2ccc(C(F)(F)F)cn2)C(=O)Nc2nc(-c3cn4ncnc4c(CCCC(F)(F)F)n3)nc(N)c21` (stereo not drawn) [Example 25B, 4-amino-5-methyl-2-(8-(4,4,4-trifluorobutyl)-[1,2,4]triazolo[1,5-a]pyrazin-6-yl)-5-(5-(trifluoromethyl)pyridin-2-yl)-5H-pyrrolo[2,3-d]pyrimidin-6(7H)-one], for which, in experiment [1] (P.O. 0.3 mpk), the “Maximum peak decrease” value is listed as “B (Category B=SBP in SHRs 20-40 mmHg)”. The Emax in experiment [2] was determined as 131%.
`Nc1nc(-c2cn3ncnc3c(CCCC(F)(F)F)n2)nc2c1C(c1ccc(Cl)c(F)c1)(C1CC1)C(=O)N2` (stereo not drawn) [Example 33A, 4-amino-5-(4-chloro-3-fluorophenyl)-5-cyclopropyl-2-(8-(4,4,4-trifluorobutyl)-[1,2,4]triazolo[1,5-a]pyrazin-6-yl)-5H-pyrrolo[2,3-d]pyrimidin-6(7H)-one]: the “Maximum peak decrease” value in experiment [1] (P.O. 0.3 mpk) is listed as “C (Category C=SBP in SHRs >40 mmHg)”. The Emax in experiment [2] amounted to 107%.
In the same order, the values of `Nc1nc(-c2cn3ncnc3c(CCCC(F)(F)F)n2)nc2c1C(c1ccc(F)cn1)(C1CC1)C(=O)N2` (stereo not drawn) [Example 34A, 4-amino-5-cyclopropyl-5-(5-fluoropyridin-2-yl)-2-(8-(4,4,4-trifluorobutyl)-[1,2,4]triazolo[1,5-a]pyrazin-6-yl)-5H-pyrrolo[2,3-d]pyrimidin-6(7H)-one] are “C (Category C=SBP in SHRs >40 mmHg)” and 235%.
Turning to `CC1(c2ccccn2)C(=O)Nc2nc(-c3cn4ncnc4c(CCCC(F)(F)F)n3)nc(N)c21` (stereo not drawn) [Example 36B, 4-amino-5-methyl-5-(pyridin-2-yl)-2-(8-(4,4,4-trifluorobutyl)-[1,2,4]triazolo[1,5-a]pyrazin-6-yl)-5H-pyrrolo[2,3-d]pyrimidin-6(7H)-one], the “Maximum peak decrease” value in experiment [1] (P.O. 1 mpk) is “B (Category B=SBP in SHRs 20-40 mmHg)”. Further, the Emax in experiment [2] worked out at 82%.
On to `COc1ccc(C2(C3CC3)C(=O)Nc3nc(-c4cn5ncnc5c(CCCC(F)(F)F)n4)nc(N)c32)nc1` (stereo not drawn) [Example 39A, 4-amino-5-cyclopropyl-5-(5-methoxypyridin-2-yl)-2-(8-(4,4,4-trifluorobutyl)-[1,2,4]triazolo[1,5-a]pyrazin-6-yl)-5H-pyrrolo[2,3-d]pyrimidin-6(7H)-one], for which the “Maximum peak decrease” value in experiment [1] (P.O. 0.3 mpk) is “B (Category B=SBP in SHRs 20-40 mmHg)”. Besides, in experiment [2], the Emax turned out to be 96%.
Turning to `Nc1nc(-c2cn3ncnc3c(CCCC(F)(F)F)n2)nc2c1C(c1ncc(Cl)cn1)(C1CC1)C(=O)N2` (stereo not drawn) [Example 41A, 4-amino-5-(5-chloropyrimidin-2-yl)-5-cyclopropyl-2-(8-(4,4,4-trifluorobutyl)-[1,2,4]triazolo[1,5-a]pyrazin-6-yl)-5H-pyrrolo[2,3-d]pyrimidin-6(7H)-one], the “Maximum peak decrease” value in experiment [1] (P.O. 0.3 mpk) is given as “B (Category B=SBP in SHRs 20-40 mmHg)”. For the same compound, the Emax in experiment [2] amounted to 151%.
Turning to `CCCc1nc(-c2nc(N)c3c(n2)NC(=O)C3(c2ccc(C(F)(F)F)cn2)C2CC2)cn2ncnc12` (stereo not drawn) [Example 56A, 4-amino-5-cyclopropyl-2-(8-propyl-[1,2,4]triazolo[1,5-a]pyrazin-6-yl)-5-(5-(trifluoromethyl)pyridin-2-yl)-5H-pyrrolo[2,3-d]pyrimidin-6(7H)-one], in experiment [1] (P.O. 3 mpk), the “Maximum peak decrease” value was “B (Category B=SBP in SHRs 20-40 mmHg)”. The Emax in experiment [2] was 81%.
As for `CCCCc1nc(-c2nc(N)c3c(n2)NC(=O)[C@@]3(C)c2ccc(F)cc2)cn2ncnc12` [Example 60A, (S)-4-amino-2-(8-butyl-[1,2,4]triazolo[1,5-a]pyrazin-6-yl)-5-(4-fluorophenyl)-5-methyl-5,7-dihydro-6H-pyrrolo[2,3-d]pyrimidin-6-one], in experiment [1] (P.O. 0.3 mpk), the “Maximum peak decrease” value is “C (Category C=SBP in SHRs >40 mmHg)”. Moreover, the Emax in experiment [2] was 121%.
In the same order, the values of `CCCCc1nc(-c2nc(N)c3c(n2)NC(=O)C3(C)c2ccc(F)cn2)cn2ncnc12` (stereo not drawn) [Example 61B, 4-amino-2-(8-butyl-[1,2,4]triazolo[1,5-a]pyrazin-6-yl)-5-(5-fluoropyridin-2-yl)-5-methyl-5H-pyrrolo[2,3-d]pyrimidin-6(7H)-one] are “C (Category C=SBP in SHRs >40 mmHg)” and 177%.
In the case of `CCCCc1nc(-c2nc(N)c3c(n2)NC(=O)C3(c2ccc(F)c(F)c2)C2CC2)cn2ncnc12` (stereo not drawn) [Example 65A, 4-amino-2-(8-butyl-[1,2,4]triazolo[1,5-a]pyrazin-6-yl)-5-cyclopropyl-5-(3,4-difluorophenyl)-5H-pyrrolo[2,3-d]pyrimidin-6(7H)-one], in experiment [1] (P.O. 0.3 mpk), the “Maximum peak decrease” value was “C (Category C=SBP in SHRs >40 mmHg)”. In addition, in experiment [2], the Emax stood at 104%.
